Measured values published in ChEMBL document CHEMBL6087454, “Identification of Novel Organo-Se BTSA-Based Derivatives as Potent, Reversible, and Selective PPARγ Covalent Modulators for Antidiabetic Drug Discovery” (J Med Chem, 2025).
The source made the active and inactive calls.

How the values were obtained:
[1] = biological target: T1, Peroxisome proliferator-activated receptor gamma (Homo sapiens) (UniProt P37231); assay: Reversible covalent binding affinity to recombinant GST-tagged human PPAR-gamma ligand binding domain (E235 to Y505 residues) extracted from Escherichia coli BL21 (DE3) cells at 500 nM measured upto 240 mins by TR-FRET assay; settings: filed as partial agonist
T1 sequence (whole entry): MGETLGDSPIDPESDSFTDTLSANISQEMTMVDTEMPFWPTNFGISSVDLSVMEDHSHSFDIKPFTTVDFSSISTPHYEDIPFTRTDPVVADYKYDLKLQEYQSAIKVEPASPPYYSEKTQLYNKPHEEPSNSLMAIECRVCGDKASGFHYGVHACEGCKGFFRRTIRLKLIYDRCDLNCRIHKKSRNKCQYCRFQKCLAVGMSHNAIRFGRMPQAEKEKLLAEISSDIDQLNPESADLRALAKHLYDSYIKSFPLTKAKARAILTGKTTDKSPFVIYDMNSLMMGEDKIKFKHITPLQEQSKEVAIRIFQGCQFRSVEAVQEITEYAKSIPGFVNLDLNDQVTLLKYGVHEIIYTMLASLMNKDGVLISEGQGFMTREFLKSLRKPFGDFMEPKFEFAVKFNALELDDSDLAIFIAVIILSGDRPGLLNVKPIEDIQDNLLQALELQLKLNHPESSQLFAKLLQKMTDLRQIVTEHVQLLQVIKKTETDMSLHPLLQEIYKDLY

3T3-L1 [2] = assay: Inhibition of adipogenesis in mouse 3T3-L1 cells assessed as downregulation of aP2 gene expression at 1 uM measured after 48 hrs by RT-qPCR analysis; assay type: functional, cell-based
3T3-L1 [3] = assay: Insulin sensitizing activity in mouse 3T3-L1 cells assessed as upregulation of Glut4 gene expression at 1 uM measured after 48 hrs by RT-qPCR analysis; assay type: functional, cell-based
3T3-L1 [4] = assay: Insulin sensitizing activity in mouse 3T3-L1 cells assessed as downregulation of SOCS3 gene expression at 1 uM measured after 48 hrs by RT-qPCR analysis; assay type: functional, cell-based
Mus musculus [5] = assay: Effect on pRb protein expression in male db/db mouse liver at 2.5 to 10 mg/kg/day, ip administered for 4 weeks by Western blotting analysis; assay type: functional, organism-based; settings: dose 2.5-10 mg/kg/day
Mus musculus [6] = assay: Antidiabetic activity in male db/db mouse model assessed as downregulation of C/EBPalpha gene expression in liver at 2.5 to 10 mg/kg/day, ip administered for 4 weeks by RT-qPCR analysis; assay type: functional, organism-based; settings: dose 2.5-10 mg/kg/day

Cc1ccc(S(=O)(=O)Oc2ccc(S3(=O)=N[Se]c4cc(OS(=O)(=O)c5ccc(C)cc5)ccc43)cc2)cc1 (stereo unspecified)
active: Activity [1] | inhibition (3T3-L1 [2]) | Activity (3T3-L1 [3]) | Activity (3T3-L1 [4]) | Activity (Mus musculus [6])
inactive: Activity (Mus musculus [5])
